pIC50: −log10 of the molar value. Where a name gives a salt, the structure may show the parent alone.
Each molecule was assayed on mouse heterotopic cardiac transplant (BALB/c->C57BL/6 or B6/129) (assay: Mouse heterotopic cardiac transplant model). Conditions: oral administration, 25 mg/kg/day for 14 days, starting at transplantation.
Assay type: in vivo
Text: In the mouse heterotopic cardiac transplant model across full histocompatibility barriers (BALB/c->C57BL/6 or B6/129), graft survival is typically limited to 7.3 ± 0.4 days (mean ± SD, […]) (see for example in Hancock WW, Sayegh MH, Zheng XG, Peach R, Linsley PS, Turka LA. Costimulatory function and expression of CD40-ligand, CD80 and CD86 or in vascularized murine cardiac allograft rejection. Proc Natl Acad Sci (USA) 93, 1996, 13967-13972; and Hancock W W, Buelow R, Sayegh MH, Turka LA. Antibody-induced transplant arteriosclerosis is prevented by graft expression of antioxidant and anti-apoptotic genes. Nature Med 4, 1998, 1392-1396).
The effects of oral administration of the compounds according to examples 49 and 60 were tested using 25 mg/kg/day for 14 days, starting at transplantation in said animal model. Whereas grafts in animals receiving the carrier, methylcellulose, rejected by 7 days (6.7 ± 0.8), grafts in compound 49-treated mice survived around 15 days (15.3 ± 0.6), and grafts in those given compound 60 survived for 20 days (20 ± 1). Current immunosuppressive therapies used in transplantation have limited efficacy and/or considerable toxicity.

For `O=C(Nc1cc(Cl)cc2c1[nH]c1cnccc12)c1cccnc1` [Example 60, N-(6-Chloro-9H-β-carbolin-8-yl)-nicotinamide], which graft survival is on record?
The graft survival was 20 ± 1 days.

Which graft survival does the source give for “7-chloro-9-(4-fluorobenzoylamino)-β-carboline trifluoroacetate [Example 49]” here?
The graft survival was 15.3 ± 0.6 days.

What follows are molecules tested against T1, IκBα-kinase complex (Homo sapiens, UniProt O14920+O15111) (assay: biochemical). Conditions: activated kinase complex from HeLa S3 cell-extracts S100 fraction; 30 minutes pre-incubation at 25°C; biotinylated peptide substrate; read-out: IkB-kinase IC50.
T1 construct: IKBα kinase complex was prepared by first diluting 10 mL of HeLa S3 cell-extracts S100 fraction; endogenous in cells; host or cells: HeLa S3 (S100 fraction, 40% ammonium sulfate cut, Superose-6 fractions at about 670 kDa)
T1 sequence (O14920 whole entry): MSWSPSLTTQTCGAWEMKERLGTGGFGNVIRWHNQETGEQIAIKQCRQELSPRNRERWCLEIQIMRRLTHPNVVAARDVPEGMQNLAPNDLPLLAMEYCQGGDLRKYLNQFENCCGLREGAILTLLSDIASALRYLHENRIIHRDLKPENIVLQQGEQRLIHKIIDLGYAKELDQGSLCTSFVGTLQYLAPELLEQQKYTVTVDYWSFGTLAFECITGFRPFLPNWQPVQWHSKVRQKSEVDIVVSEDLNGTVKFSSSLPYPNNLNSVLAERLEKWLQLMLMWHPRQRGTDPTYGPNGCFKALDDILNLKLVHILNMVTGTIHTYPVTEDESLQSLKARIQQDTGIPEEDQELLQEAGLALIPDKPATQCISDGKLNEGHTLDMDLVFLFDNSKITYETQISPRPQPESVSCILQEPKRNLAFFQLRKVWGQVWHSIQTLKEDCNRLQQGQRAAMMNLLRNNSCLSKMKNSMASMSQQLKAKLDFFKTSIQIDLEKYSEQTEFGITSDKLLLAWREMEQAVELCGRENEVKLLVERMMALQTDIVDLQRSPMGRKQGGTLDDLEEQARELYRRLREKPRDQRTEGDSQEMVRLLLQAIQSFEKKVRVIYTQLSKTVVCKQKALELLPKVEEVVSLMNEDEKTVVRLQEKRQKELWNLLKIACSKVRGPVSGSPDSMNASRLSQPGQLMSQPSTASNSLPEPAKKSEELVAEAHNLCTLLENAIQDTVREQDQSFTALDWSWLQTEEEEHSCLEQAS
T1 sequence (O15111 whole entry): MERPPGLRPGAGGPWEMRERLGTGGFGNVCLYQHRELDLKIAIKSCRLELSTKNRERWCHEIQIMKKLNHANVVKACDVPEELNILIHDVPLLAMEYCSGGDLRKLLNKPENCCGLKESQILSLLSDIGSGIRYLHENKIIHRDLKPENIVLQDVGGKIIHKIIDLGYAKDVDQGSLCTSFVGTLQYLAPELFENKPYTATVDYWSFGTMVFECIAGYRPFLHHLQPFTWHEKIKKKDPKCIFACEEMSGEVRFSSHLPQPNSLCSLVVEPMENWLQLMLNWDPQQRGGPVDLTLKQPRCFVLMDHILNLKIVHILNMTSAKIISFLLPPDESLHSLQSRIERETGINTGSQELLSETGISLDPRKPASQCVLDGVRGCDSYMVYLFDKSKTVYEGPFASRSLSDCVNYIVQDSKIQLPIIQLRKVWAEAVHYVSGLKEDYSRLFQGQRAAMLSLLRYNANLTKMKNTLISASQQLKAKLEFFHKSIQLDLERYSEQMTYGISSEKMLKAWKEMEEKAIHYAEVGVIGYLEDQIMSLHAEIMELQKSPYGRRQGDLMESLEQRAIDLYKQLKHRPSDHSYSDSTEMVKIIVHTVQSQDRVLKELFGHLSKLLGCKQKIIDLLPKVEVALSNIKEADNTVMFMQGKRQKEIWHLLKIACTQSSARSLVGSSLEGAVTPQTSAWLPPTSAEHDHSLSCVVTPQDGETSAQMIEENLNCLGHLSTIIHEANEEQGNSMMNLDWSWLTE
T1 sequence (Q9Y6K9 whole entry partner): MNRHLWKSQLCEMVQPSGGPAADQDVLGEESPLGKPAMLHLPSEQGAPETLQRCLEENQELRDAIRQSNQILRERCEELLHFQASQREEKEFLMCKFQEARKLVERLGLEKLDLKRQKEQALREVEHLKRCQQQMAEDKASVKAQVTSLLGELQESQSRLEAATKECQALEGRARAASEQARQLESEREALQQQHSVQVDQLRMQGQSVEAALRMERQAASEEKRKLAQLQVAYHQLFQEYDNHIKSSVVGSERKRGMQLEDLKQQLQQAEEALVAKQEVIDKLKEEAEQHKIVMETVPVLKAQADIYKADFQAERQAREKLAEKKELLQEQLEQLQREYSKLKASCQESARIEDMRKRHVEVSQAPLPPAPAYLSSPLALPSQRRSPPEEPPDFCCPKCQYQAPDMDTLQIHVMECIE

With `Brc1ccc2c3ccncc3n(Br)c2c1` [Example 8, 7,9-dibromo-β - carboline hydrochloride] as the molecule, how does the pIC50 read?
The pIC50 was 6.70.

With “7-chloro-9-(Acetyl-methylamino)-β-carboline trifluoroacetate [Example 48]” as the molecule, how does the pIC50 read?
Its pIC50 is 5.40.

With `Nn1c2cnccc2c2ccc(Cl)cc21` [Example 15, 9-amino-7-chloro-β-carboline] as the molecule, how does the pIC50 read?
The pIC50 was 6.10.

`CC(=O)c1nccc2c1[nH]c1cc(Cl)ccc12` [Example 13, 1-acetyl-7-chloro-β - carboline] was tested. Which pIC50 did it give?
Its pIC50 is 6.30.

How did the pIC50 turn out when `COc1ccc2c(c1)[nH]c1c(C)nccc12` [Example 35, 7-methoxy-1-methyl-β - carboline] was run?
Its pIC50 is 5.46.

How did the pIC50 turn out when `CC(C)c1ccc2c(c1)[nH]c1cnccc12` [Example 4, 7-isopropyl-β -carboline hydrochloride] was run?
The pIC50 was 5.60.

With `Clc1ccc2c3ccncc3n(Cl)c2c1` [Example 9, 7,9-dichloro-β-carboline] as the molecule, how does the pIC50 read?
The pIC50 was 6.70.

How did the pIC50 turn out when “7-chloro-9-(methylamino)-β-carboline trifluoroacetate [Example 43]” was run?
Its pIC50 is 6.00.

How did the pIC50 turn out when `Oc1nccc2c1[nH]c1cc(C(F)(F)F)ccc12` [Example 41, 1-hydroxy-7-trifluoromethyl-β-carboline] was run?
The pIC50 was 5.66.

With `COc1ccc2c(c1)[nH]c1cnccc12` [Example 30, 7-methoxy-β - carboline] as the molecule, how does the pIC50 read?
Its pIC50 is 5.28.

With `CC(=O)c1nccc2c1[nH]c1cc(Br)ccc12` [Example 2, 1-acetyl-7-bromo-β-carboline] as the molecule, how does the pIC50 read?
The pIC50 was 6.40.

`Fc1c(Cl)ccc2c1[nH]c1cnccc12` [Example 34, 7-chloro-8-fluoro-β - carboline] was tested. Which pIC50 did it give?
The pIC50 was 6.00.

`N#Cc1ccc2c(c1)[nH]c1cnccc12` [Example 5, 7-cyano-β-carboline] was tested. Which pIC50 did it give?
The pIC50 was 6.00.

`Fc1ccc2c(c1)[nH]c1cnccc12` [Example 3, 7-fluoro-β-carboline] was tested. Which pIC50 did it give?
The pIC50 was 6.00.

How did the pIC50 turn out when `FC(F)(F)c1ccc2c(c1)[nH]c1cnccc12` [Example 42, 7-trifluoromethyl-β-carboline] was run?
Its pIC50 is 6.10.

With `O=C(O)c1ccc2c(c1)[nH]c1cnccc12` [Example 7, 7-carboxy-β-carboline trifluoroacetat] as the molecule, how does the pIC50 read?
The pIC50 was 4.19.

`Cn1ccc2c3cccc(O)c3nc-2c1` [Example 23, 8-hydroxy-2-methyl-β-carboline] was tested. Which pIC50 did it give?
Its pIC50 is 4.66.

How did the pIC50 turn out when `O=[N+]([O-])c1ccc2c(c1)[nH]c1cnccc12` [Example 6, 7-nitro-β-carboline hydrochloride] was run?
Its pIC50 is 5.52.

How did the pIC50 turn out when `O=[N+]([O-])n1c2cnccc2c2ccc(Cl)cc21` [Example 14, 7-chloro-9-nitro-β-carboline] was run?
The pIC50 was 5.40.
